Consider 5 compounds from patent US9340790B2, “Method for constructing recombinant bacterium for producing non-native protein, and utilization of same” (RIKEN, priority 2010, dated 2016).

“And” between values parts separate entries of the source, which are not always exact repeats. Identical values can stand only once.

Format in all cases: cell-based, Escherichia coli
One assay relates to BW25113 (prfA+ strain). The experiment in a line: Efficiency of non-natural amino acid introduction at UAG codon in prfA+ strain (western blotting, TRX-GST fusion). The note with it: prfA+ condition, compared with 3-iodotyrosine. The source says: In this experiment, a GST gene containing a UAG codon near the N terminal was introduced, together with an expression unit for introducing a non-natural amino acid, into BW25113 which was a prfA^+ strain. Then, the efficiency of translation was checked. The GST gene containing a UAG codon near the N terminal is incorporated in a plasmid so that a fusion protein of the GST and thioredoxin (TRX) is produced (refer to (a) of FIG. 31). The result is shown in (b) of FIG. 31. […] The strain shown in Lane 1 contains no construct that introduces a non-natural amino acid. As is clear from Lanes 4 to 6, strains into each of which a construct for assigning a UAG codon to 3-iodotyrosine, 4-azidophenylalanine or o-sulfotyrosine has been introduced generate total-length fusion proteins in the presence of corresponding non-natural amino acids (see arrow A in (b) of FIG. 31). Further, in these strains, proteins resulting from termination of translation at the UAG codon were also produced (see arrow B in (b) of FIG. 31). The number in parentheses below each lane indicates the percentage (%) of total-length fusion protein with respect to the sum of the proteins resulting from termination of translation and the full-length fusion protein thus produced. That is, the number indicates the efficiency of non-natural amino acid introduction at the UAG codon. […]

For the next assay, the system named is BW25113RFzero-iy strain. The note with it: LB liquid culture medium with the non-natural amino acid added, shaking at 37° C. overnight. How it is done: First, a minute amount of glycerol stock of a BW25113RFzero-iy strain was added to (i) an LB liquid culture medium and (ii) an LB liquid culture medium to which 3-iodotyrosine (IY), 3-bromotyrosine (BrY) or 3-chlorotyrosine (CIY) had been added, and incubated with shaking at 37° C. overnight. In this way, the growth of the BW25113RFzero-iy strain was examined.

The next assay concerns RFzero-q strain. The experiment in a line: Chloramphenicol (Cm) resistance of cat transformants. An excerpt: In order to confirm that the RFzero-q strain allows insertion of a glutamic acid at an amber codon, the RFzero-q strain was transformed with a mutated gene which codes for chloramphenicol acetyltransferase (cat), in which mutated gene there are three amber codons in ORF (such a mutated gene is referred to as cat(3Am)). […] The “X”s in the amino acid sequence shown in (a) of FIG. 5 indicate the positions of amber codons of the cat(3Am), and are glutamic acids in the case of the RFzero-q strain (SEQ ID NO: 17).
(§1) Furthermore, a RFzero-q strain was transformed with a mutated gene which codes for cat, and in which mutated gene there are ten amber codons in ORF (such a mutated gene is referred to as cat(10Am)). […] The “X”s in the amino acid sequence shown in (b) of FIG. 5 indicate positions of amber codons of the cat(10Am), and are glutamic acids in the case of the RFzero-q strain (SEQ ID NO: 18).
(§2) In order to examine if the UAG translation efficiency was improved, a cat(13Am) in which all 13 of the glutamine codons on the cat gene were replaced with UAG was introduced into the RFzero-q3 and RFzero-q7 strains, respectively. […] This was lower than Cm resistance (400 μg/ml) in the HST08 and RFzero-q strains transformed with pACYC184 carrying the wild-type cat gene.

Another assay relates to HST08. Described as above.
Excerpt: as §1, §2

In a further assay the test system is RFzero-q7 strain. The assay is described as follows: Chloramphenicol (Cm) resistance of cat(13Am) transformant. The conditions noted are these: RFzero-q7 strain with cat(13Am). How it is done: as §2
The next assay concerns RFzero-q3 strain. Described as above. The conditions noted are these: RFzero-q3 strain with cat(13Am); listed as Cm. The procedure: as §2
Assay [1] deals with RFzero-iy strains (BW25113RFzero-iy, HMS174RFzero-iy, BL21RFzero-iy). The assay is described as follows: Dependence of growth on 3-iodotyrosine, spotting on non-selective LB culture medium. The conditions noted are these: non-selective LB culture medium with or without 3-iodotyrosine. How it is done:
Furthermore, how much the growth of each of the RFzero-iy strains depends on non-natural amino acids was checked. A cell culture having been incubated overnight was diluted, the diluted culture was spotted on (i) a non-selective LB culture medium containing 3-iodotyrosine and (ii) a non-selective LB culture medium containing no 3-iodotyrosine. The media were further incubated. […] This is consistent with the fact that UAG translation activity is necessary in a cell to avoid lethality caused by prfA knockout.

In the case of `[N-]=[N+]=Nc1ccc(C[C@H](N)C(=O)O)cc1` [AzF, 4-azidophenylalanine], the “Efficiency of non-natural amino acid introduction at the UAG codon” value in the assay on BW25113 (prfA+ strain) is given as “lower efficiency than 3-iodotyrosine”.
As for `N[C@@H](Cc1ccc(O)c(Br)c1)C(=O)O` [BrY, 3-bromotyrosine], in the assay on BW25113RFzero-iy strain, the OD600 worked out at 1.39.
Still for that read-out and setting: in the case of `N[C@@H](Cc1ccc(O)c(Cl)c1)C(=O)O` [ClY, 3-chlorotyrosine] it was 1.41.
In the case of `O=C(N[C@H](CO)[C@H](O)c1ccc([N+](=O)[O-])cc1)C(Cl)Cl` [chloramphenicol], the figures for the “Cm resistance (chloramphenicol concentration in culture medium up to which resistance was shown)” value in the assay on RFzero-q strain (RFzero-q strain transformed with cat(3Am)), with RFzero-q strain (RFzero-q strain transformed with cat(10Am)) and with RFzero-q strain (RFzero-q strain transformed with wild-type cat) were 400 µg/mL, 200 µg/mL and 400 µg/mL, respectively. In addition, the Cm resistance with RFzero-q strain (RFzero-q strain transformed with pACYC184 carrying the wild-type cat gene) was 400 µg/mL; with HST08 (HST08 transformed with pACYC184 carrying the wild-type cat gene) it was 400 µg/mL; with RFzero-q7 strain, 200 µg/mL; in the assay with RFzero-q3 strain, 200 µg/mL and ~400 µg/mL. Moreover, the “Cm concentration at which the strain did not grow” value in the assay with HST08 (HST08 into which cat(10Am) had been introduced) was < 10 µg/mL.
As to `N[C@@H](Cc1ccc(O)c(I)c1)C(=O)O` [IY, 3-iodotyrosine], in assay [1], the “Dependence of growth on the non-natural amino acid” value is reported as “totally depended on the presence of 3-iodotyrosine”. The same compound displayed an OD600 in the assay with BW25113RFzero-iy strain of 1.36.
